In patent publication US20250051266A1, “Novel GLV-Phenolamide: Biosynthesis and Function in Protecting Plants from Herbivore Attack” (Max-Planck-Gesellschaft zur Förderung der Wissenschaften …, priority 2021, published 2025):
Entries after “also recorded” stand apart in the source; their conditions may differ.

Assays:
Empoasca decipiens = experiment: In vitro Empoasca non-choice (direct feeding) assay on artificial diet; assay type: in vivo; conditions: physiologically relevant concentrations (CoP 7 μM, CP 100 μM, FP 10 μM) in 10% glucose solution
Method: FIG. 18 Mortality rates of in vitro Empoasca non-choice assays (n=4, 25 Empoasca leafhoppers per replicate) in which Empoasca were fed for 6 h with either 1 μM m/z 347.19 synthesized by using NaPPO1/NaPPO2 and CP and Z3H and diluted in 10% glucose solution or with 10% glucose as control (top). Empoasca in planta choice assays (n=8) conducted with VIGS plants of EV, PPO1, PPO2 and AT1 (bottom).
To test if CPH is responsible for Empoasca resistance, E. decipiens were fed with physiologically relevant concentrations of 1 μM (estimated from field-collected elicited leaves) of NMR-confirmed CPH in diets containing 10% glucose in vitro. […] NaAT1 expression was silenced in N. attenuata plants using VIGS, which disrupted the production of both CP and the CPH (Li et al., Proc Natl Acad Sci USA 112, E4147-4155 (2015)) (FIG. 13).
Empoasca feeding assays: The survival rate of Empoasca feeding on artificial diet (10% 5 sucrose in water) supplemented with caffeoylputrescine (CP, 100 μM), coumaroylputrescine (CoP, 7 μM), feruloylputrescine (FP, 10 μM), or the m/z 347.19 hexenyl derivative of CP (CPH, 1 μM) was recorded every 1 h overnight. The artificial feeding devices consisted of a 50-mL Falcon tube with a 7-mm hole drilled into the conical bottom through which the leafhoppers were aspi-rated into the tube and which then was covered with Parafilm punctured with needles to create ventilation holes. The large opening of the Falcon tube was covered with a double layer of Parafilm containing the liquid diet (100 μL). The artificial feeding devices were placed upside down with the liquid diet side down on a White Light Box (STRATAGENE) to provide bottom-light illu-mination.

Empoasca leafhoppers = experiment: In vivo Empoasca choice assay, compounds infiltrated into irMYC2 leaves; set-up: species or system Empoasca decipiens; conditions: synthetic CoP 7 μM, CP 100 μM, FP 10 μM in 0.1% DMSO infiltrated into irMYC2 leaves
Method: The spermi-dine-derived metabolites could be excluded as mediators of Empoasca nonhost resistance based on the lack of responses of leafhoppers to the irDH29 and irCV86 lines (FIG. 5). To further explore the involvement of CoP, CP and FP, in vivo Empoasca choice assays were conducted by individually infiltrating physiologically relevant concentrations of synthetic CoP (7 μM), CP (100 μM) and FP (10 μM) into leaves of irMYC2 plants which were devoid of elicited phenolamides (FIG. 9 and FIG. 34).
Two replicates of the 650 RILs from a 26-parent MAGIC population and their 26 parental 5 lines were planted at the WCCER field station, Prescott, Arizona, USA. To elicit a standardized herbivory response, leaves of all RILs, which were in the early-flowering stage were wounded and immediately treated with diluted Manduca sexta oral secretions (W+OS) or left untreated (control) and harvested on dry ice at 1 h and 72h. One week after metabolite sampling, all plants of the field population were screened for natural Empoasca leafhopper numbers and damage; these leafhoppers had opportunistically sampled the N. attenuata plants from neighboring native cu-cumber hostplants. The mQTL and eQTL mapping between SNPs and the relative abundance of each compound or transcript using a set of 646 RILs of the MAGIC population was done with the R package software GAPIT using General linear models (GLM). The multi-omics co-association network was built from correlations among metabolomes, transcriptomes, phytohormones and SNPs. […] Metabolome diversity and specialization and metabolic specificity was calculated using information theory by consider-ing the Shannon entropy of the idMS/MS frequency distributions. […] OS-induced volatile emissions were collected using polydimethylsiloxane (PDMS) tubing from 650 MAGIC RILs planted in the main MPI-CE glasshouse and analyzed bythermal desorption-gas chromatography-mass spectrometry (TD-GC-MS). […]

N-coumaroylputrescine [CoP]
changes in mortality rates of E. decipiens compared to glucose controls (Empoasca decipiens): no significant changes in mortality rates; also recorded: not affecting leafhopper behavior or performance | preference of Empoasca for irMYC2 plants (Empoasca leafhoppers): did not alter the preference; also recorded: not affecting leafhopper behavior or performance
